For this test, the system named is JAK1-dependent STAT6 phosphorylation downstream of IL-13 stimulation in TF-1 human erythroleukemia cells. Kind of test: cells. The note with it: TF-1, read-out: IL-13-pSTAT6 IC50.
One may read the IC50 as the concentration at which inhibition is half-maximal. Turning to `CN1CCN(C(=O)C2CN(C(=O)c3ccc(Nc4nc5c(N6CCC(O)(c7ccc(Cl)cc7)CC6)cccn5n4)cc3)C2)CC1` [Example 1-165, [4-[[8-[4-(4-chlorophenyl)-4-hydroxy-1-piperidyl]-[1,2,4]triazolo[1,5-a]pyridin-2-yl]amino]phenyl]-[3-(4-methylpiperazine-1-carbonyl)azetidin-1-yl]methanone], the IC50 came out at 25.1 nM.

Turning to `O=C(c1ccc(Nc2nc3c(N4CCC(O)(c5ccc(Cl)cc5)CC4)cccn3n2)cc1)N1CCN2CCCC2C1` (stereo not drawn) [Example 1-168, 3,4,6,7,8,8a-hexahydro-1H-pyrrolo[1,2-a]pyrazin-2-yl-[4-[[8-[4-(4-chlorophenyl)-4-hydroxy-1-piperidyl]-[1,2,4]triazolo[1,5-a]pyridin-2-yl]amino]phenyl] methanone], the half-maximal inhibitory concentration (IC50) stood at 22.6 nM.

Take `O=C(NC1CCNC1)c1ccc(Nc2nc3c(N4CCC(O)(c5ccc(Cl)cc5)CC4)cccn3n2)cc1` (stereo not drawn) [Example 1-176, 4-[[8-[4-(4-chlorophenyl)-4-hydroxy-1-piperidyl]-[1,2,4]triazolo[1,5-a]pyridin-2-yl]amino]-N-pyrrolidin-3-yl-benzamide]: the IC50 came out at 279 nM.

Regarding `O=C(NC1CCCNC1)c1ccc(Nc2nc3c(N4CCC(O)(c5ccc(Cl)cc5)CC4)cccn3n2)cc1` (stereo not drawn) [Example 1-179, 4-[[8-[4-(4-chlorophenyl)-4-hydroxy-1-piperidyl]-[1,2,4]triazolo[1,5-a]pyridin-2-yl]amino]-N-(3-piperidyl)benzamide], the IC50 was 84.3 nM.

Regarding `O=C(NCC1CCNC1)c1ccc(Nc2nc3c(N4CCC(O)(c5ccc(Cl)cc5)CC4)cccn3n2)cc1` (stereo not drawn) [Example 1-180, 4-[[8-[4-(4-chlorophenyl)-4-hydroxy-1-piperidyl]-[1,2,4]triazolo[1,5-a]pyridin-2-yl]amino]-N-(pyrrolidin-3-ylmethyl)benzamide], the IC50 was determined as 322 nM.

Consider `O=C(NC1CCNCC1)c1ccc(Nc2nc3c(N4CCC(O)(c5ccc(Cl)cc5)CC4)cccn3n2)cc1` [Example 1-181, 4-[[8-[4-(4-chlorophenyl)-4-hydroxy-1-piperidyl]-[1,2,4]triazolo[1,5-a]pyridin-2-yl]amino]-N-(4-piperidyl)benzamide], for which the IC50 is 181 nM.

Turning to `O=C(NCC1CCCNC1)c1ccc(Nc2nc3c(N4CCC(O)(c5ccc(Cl)cc5)CC4)cccn3n2)cc1` (stereo not drawn) [Example 1-183, 4-[[8-[4-(4-chlorophenyl)-4-hydroxy-1-piperidyl]-[1,2,4]triazolo[1,5-a]pyridin-2-yl]amino]-N-(3-piperidylmethyl) benzamide], the IC50 was 536 nM.

In the case of `O=C(NCC1CCNCC1)c1ccc(Nc2nc3c(N4CCC(O)(c5ccc(Cl)cc5)CC4)cccn3n2)cc1` [Example 1-184, 4-[[8-[4-(4-chlorophenyl)-4-hydroxy-1-piperidyl]-[1,2,4]triazolo[1,5-a]pyridin-2-yl]amino]-N-(4-piperidylmethyl)], the IC50 is 127 nM.

Regarding `O=C(NCCN1CCNCC1)c1ccc(Nc2nc3c(N4CCC(O)(c5ccc(Cl)cc5)CC4)cccn3n2)cc1` [Example 1-187], the IC50 is 462 nM.

`O=C(NCC1CNCCO1)c1ccc(Nc2nc3c(N4CCC(O)(c5ccc(Cl)cc5)CC4)cccn3n2)cc1` (stereo not drawn) [Example 1-188, 4-[[8-[4-(4-chlorophenyl)-4-hydroxy-1-piperidyl]-[1,2,4]triazolo[1,5-a]pyridin-2-yl]amino]-N-(morpholin-2-ylmethyl)benzamide]: the concentration for half-maximal inhibition (IC50) turned out to be 34.7 nM.

On to `NCC1CCN(C(=O)c2ccc(Nc3nc4c(N5CCC(O)(c6ccc(Cl)cc6)CC5)cccn4n3)cc2)CC1` [Example 1-193, [4-(aminomethyl)-1-piperidyl]-[4-[[8-[4-(4-chlorophenyl)-4-hydroxy-1-piperidyl]-[1,2,4]triazolo[1,5-a]pyridin-2-yl]amino]phenyl] methanone], for which the IC50 is 249 nM.

As for `O=C(c1ccc(Nc2nc3c(N4CCC(O)(c5ccc(Cl)cc5)CC4)cccn3n2)cc1)N1CCNCC1CO` (stereo not drawn) [Example 1-196, [4-[[8-[4-(4-chlorophenyl)-4-hydroxy-1-piperidyl]-[1,2,4]triazolo[1,5-a]pyridin-2-yl]amino]phenyl]-[2-(hydroxymethyl)piperazin-1-yl]methanone], the IC50 was 53.1 nM.

Take `O=C(c1ccc(Nc2nc3c(N4CCC(O)(c5ccc(Cl)cc5)CC4)cccn3n2)cc1)N1CC2CNCC2C1` (stereo not drawn) [Example 1-197, 2,3,3a,4,6,6a-hexahydro-1H-pyrrolo[3,4-c]pyrrol-5-yl-[4-[[8-[4-(4-chlorophenyl)-4-hydroxy-1-piperidyl]-[1,2,4]triazolo[1,5-a]pyridin-2-yl]amino]phenyl] methanone]: the IC50 worked out at 158 nM.

For the molecule `O=C(N[C@H]1CCCNC1)c1ccc(Nc2nc3c(N4CCC(O)(c5ccc(Cl)cc5)CC4)cccn3n2)cc1` [Example 1-198, 4-[[8-[4-(4-chlorophenyl)-4-hydroxy-1-piperidyl]-[1,2,4]triazolo[1,5-a]pyridin-2-yl]amino]-N-[(3S)-3-piperidyl]benzamide], the half-inhibitory concentration (IC50) came out at 68.5 nM.

As for `O=C(c1ccc(Nc2nc3c(N4CCC(O)(c5ccc(Cl)cc5)CC4)cccn3n2)cc1)N1CC2(CCNCC2)C1` [Example 1-199, [4-[[8-[4-(4-chlorophenyl)-4-hydroxy-1-piperidyl]-[1,2,4]triazolo[1,5-a]pyridin-2-yl]amino]phenyl]-(2,7-diazaspiro[3.5]nonan-2-yl)methanone], the IC50 turned out to be 106 nM.

For the molecule `O=C(c1ccc(Nc2nc3c(N4CCC(O)(c5ccc(Cl)cc5)CC4)cccn3n2)cc1)N1CC2(CNC2)C1` [Example 1-203, [4-[[8-[4-(4-chlorophenyl)-4-hydroxy-1-piperidyl]-[1,2,4]triazolo[1,5-a]pyridin-2-yl]amino]phenyl]-(2,6-diazaspiro[3.3]heptan-2-yl)methanone], the IC50 came to 342 nM.

For the molecule `O=C(c1ccc(Nc2nc3c(N4CCC(O)(c5ccc(Cl)cc5)CC4)cccn3n2)cc1)N1CCC2(CNC2)C1` [Example 1-205, [4-[[8-[4-(4-chlorophenyl)-4-hydroxy-1-piperidyl]-[1,2,4]triazolo[1,5-a]pyridin-2-yl]amino]phenyl]-(2,6-diazaspiro[3.4]octan-6-yl)methanone], the concentration for half-maximal inhibition (IC50) worked out at 522 nM.

With `O=C(c1ccc(Nc2nc3c(N4CCC(O)(c5ccc(Cl)cc5)CC4)cccn3n2)cc1)N1CCC2(CCNC2)C1` (stereo not drawn) [Example 1-207, [4-[[8-[4-(4-chlorophenyl)-4-hydroxy-1-piperidyl]-[1,2,4]triazolo[1,5-a]pyridin-2-yl]amino]phenyl]-(2,7-diazaspiro[4.4]nonan-2-yl)methanone], the half-maximal inhibitory concentration (IC50) is 192 nM.

In the case of `O=C(c1ccc(Nc2nc3c(N4CCC(O)(c5ccc(Cl)cc5)CC4)cccn3n2)cc1)N1CC2(CCCNC2)C1` [Example 1-210, [4-[[8-[4-(4-chlorophenyl)-4-hydroxy-1-piperidyl]-[1,2,4]triazolo[1,5-a]pyridin-2-yl]amino]phenyl]-(2,8-diazaspiro[3.5]nonan-2-yl)methanone], the half-inhibitory concentration (IC50) was 43.5 nM.

Regarding `O=C(c1ccc(Nc2nc3c(N4CCC(O)(c5ccc(Cl)cc5)CC4)cccn3n2)cc1)N1CCC2(CCCNC2)C1` (stereo not drawn) [Example 1-212, [4-[[8-[4-(4-chlorophenyl)-4-hydroxy-1-piperidyl]-[1,2,4]triazolo[1,5-a]pyridin-2-yl]amino]phenyl]-(2,9-diazaspiro[4.5]decan-2-yl)methanone], the IC50 is 196 nM.

As for `O=C(c1ccc(Nc2nc3c(N4CCC(O)(c5ccc(Cl)cc5)CC4)cccn3n2)cc1)N1CCC2(CCNCC2)CC1` [Example 1-218, [4-[[8-[4-(4-chlorophenyl)-4-hydroxy-1-piperidyl]-[1,2,4]triazolo[1,5-a]pyridin-2-yl]amino]phenyl]-(3,9-diazaspiro[5.5]undecan-3-yl)methanone], the IC50 was 165 nM.

On to `O=C(NCC1COC2(CCNCC2)C1)c1ccc(Nc2nc3c(N4CCC(O)(c5ccc(Cl)cc5)CC4)cccn3n2)cc1` (stereo not drawn) [Example 1-220, 4-[[8-[4-(4-chlorophenyl)-4-hydroxy-1-piperidyl]-[1,2,4]triazolo[1,5-a]pyridin-2-yl]amino]-N-(1-oxa-8-azaspiro[4.5]decan-3-ylmethyl)benzamide], for which the concentration for half-maximal inhibition (IC50) amounted to 637 nM.

Take `O=C(NC1COC2(CCNCC2)C1)c1ccc(Nc2nc3c(N4CCC(O)(c5ccc(Cl)cc5)CC4)cccn3n2)cc1` (stereo not drawn) [Example 1-221, 4-[[8-[4-(4-chlorophenyl)-4-hydroxy-1-piperidyl]-[1,2,4]triazolo[1,5-a]pyridin-2-yl]amino]-N-(1-oxa-8-azaspiro[4.5]decan-3-yl)benzamide]: the half-inhibitory concentration (IC50) worked out at 866 nM.

As to `O=C(c1ccc(Nc2nc3c(N4CCC(O)(c5ccc(Cl)cc5)CC4)cccn3n2)cc1)N1CC2(CCNC2)C1` [Example 1-224, [4-[[8-[4-(4-chlorophenyl)-4-hydroxy-1-piperidyl]-[1,2,4]triazolo[1,5-a]pyridin-2-yl]amino]phenyl]-(2,7-diazaspiro[3.4]octan-2-yl)methanone], the IC50 was determined as 111 nM.

For the molecule `O=C(c1ccc(Nc2nc3c(N4CCC(O)(c5ccc(Cl)cc5)CC4)cccn3n2)cc1)N1CCOC2(CCCNC2)C1` (stereo not drawn) [Example 1-225, [4-[[8-[4-(4-chlorophenyl)-4-hydroxy-1-piperidyl]-[1,2,4]triazolo[1,5-a]pyridin-2-yl]amino]phenyl]-(1-oxa-4,8-diazaspiro[5.5]undecan-4-yl)methanone], the half-inhibitory concentration (IC50) is 30.8 nM.

For `O=C(c1ccc(Nc2nc3c(N4CCC(O)(c5ccc(Cl)cc5)CC4)cccn3n2)cc1)N1CCC2(CCCN2)CC1` [Example 1-226, [4-[[8-[4-(4-chlorophenyl)-4-hydroxy-1-piperidyl]-[1,2,4]triazolo[1,5-a]pyridin-2-yl]amino]phenyl]-(1,8-diazaspiro[4.5]decan-8-yl)methanone], the IC50 is 79.4 nM.

For `O=C(c1ccc(Nc2nc3c(N4CCC(O)(c5ccc(Cl)cc5)CC4)cccn3n2)cc1)N1CCC2(CC1)CNCCO2` [Example 1-230, [4-[[8-[4-(4-chlorophenyl)-4-hydroxy-1-piperidyl]-[1,2,4]triazolo[1,5-a]pyridin-2-yl]amino]phenyl]-(1-oxa-4,9-diazaspiro[5.5]undecan-9-yl)methanone], the IC50 is 58.1 nM.

The values above are taken from patent US9873709B2 (priority 2013, dated 2018).
